This experiment concerns the target T1, human H4 (Homo sapiens, UniProt Q9H3N8).
T1 construct: host or cells: CHO-K1
The experiment can be described thus: In vitro histamine receptor cell-based assay (aequorin bioluminescence), H4 antagonism. The settings on record: CHO-K1 cells expressing human H4, aequorin and Gα16; histamine at EC80; read-out: H4 Antagonist EC50. Here is the method: The cell-based assays utilize an aequorin dependent bioluminescence signal. Doubly-transfected, stable CHO-K1 cell lines expressing human H1 or H4, mitochondrion-targeted aequorin, and (H4 only) human G protein Gα16 are obtained from Perkin-Elmer. Cells are maintained in F12 (Ham's) growth medium, containing 10% (vol./vol.) fetal bovine serum, penicillin (100 IU/mL), streptomycin (0.1 mg/mL), zeocin (0.25 mg/mL) and geneticin (0.40 mg/mL). Cell media components are from Invitrogen, Inc. One day prior to assay, the growth medium is replaced with the same, excluding zeocin and geneticin.
For assay preparation, growth medium is aspirated, and cells are rinsed with calcium-free, magnesium-free phosphate-buffered saline, followed by two to three minute incubation in Versene (Invitrogen, Inc.) at 37° C. Assay medium (DMEM:F12 [50:50], phenol-red free, containing 1 mg/mL protease-free bovine serum albumin) is added to collect the released cells, which are then centrifuged. The cell pellet is re-suspended in assay medium, centrifuged once more, and re-suspended in assay medium to a final density of 5×10^6 cells/mL. Coelenterazine-h dye (500 μM in ethanol) is added to a final concentration of 5 μM, and mixed immediately. The conical tube containing the cells is then wrapped with foil to protect the light-sensitive dye. The cells are incubated for four hours further at room temperature (approximately 21° C.) with end-over-end rotation to keep them in suspension.
Just before assay, the dye-loaded cells are diluted to 0.75×10^6 cells/mL (H1 receptor) or 1.5×10^6 cells/mL (H4 receptor) with additional assay medium. Cells are dispensed to 1536 well micro-titer plates at 3 μL/well. To assay receptor antagonism, 60 nl of 100× concentration test compounds in 100% dimethyl sulfoxide (DMSO) are dispensed to the wells, one compound per well, by passive pin transfer, and the plates are incubated for 15 minutes at room temperature. […] The pipette dispenses 3 μL/well of agonist (histamine, at twice the final concentration, where final concentration is a previously determined EC80) in assay medium, with concurrent bioluminescence detection. Agonist activity of test compounds is excluded by separate assays that measure response to test compounds immediately, without added histamine agonist.
CCD image capture on the Lumilux includes a 5 second baseline read prior to agonist addition, and generally a 40 second read per plate after agonist addition. A decrease in bioluminescence signal (measured either as area-under-the-curve, or maximum signal amplitude minus minimum signal amplitude) correlates with receptor antagonism in a dose dependent manner. The negative control is DMSO lacking any test compound. For antagonist assays, the positive controls are diphenhydramine (2-Diphenylmethoxy-N,N-dimethylethylamine, 10 μM final concentration, H1 receptor) or JNJ7777120 (1-[(5-Chloro-1H-indol-2-yl)carbonyl]-4-methyl-piperazine, 10 μM final concentration, H4 receptor). Efficacy is measured as a percentage of positive control activity.

The source of these data is patent US20120065187A1 (ALCON RESEARCH, LTD, priority 2008, published 2012).

What is called EC50 is the concentration that produces a half-maximal response.

SMILES strings stand for the structures. Structures can show the parent of a compound that is named as a salt.

T1 sequence (Q9H3N8 whole entry): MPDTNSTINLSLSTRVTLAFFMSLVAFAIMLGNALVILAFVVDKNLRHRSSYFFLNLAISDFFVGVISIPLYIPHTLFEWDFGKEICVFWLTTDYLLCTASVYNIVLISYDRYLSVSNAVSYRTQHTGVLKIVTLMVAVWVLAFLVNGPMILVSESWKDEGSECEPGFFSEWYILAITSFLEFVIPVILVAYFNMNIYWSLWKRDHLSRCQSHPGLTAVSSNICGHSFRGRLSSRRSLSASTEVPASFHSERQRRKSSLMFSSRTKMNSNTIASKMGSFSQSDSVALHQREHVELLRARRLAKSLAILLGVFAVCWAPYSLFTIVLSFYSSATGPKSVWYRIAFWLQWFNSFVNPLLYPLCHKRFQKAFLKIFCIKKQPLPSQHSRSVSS

Turning to `CN1CCN(c2nc3ccc(C(F)(F)F)c(F)c3n3nnnc23)CC1` [Example 171, 9-Fluoro-4-(4-methylpiperazin-1-yl)-8-(trifluoromethyl)tetrazolo[1,5-a]quinoxaline], the EC50 was less than 10 µM.

In the case of `Fc1cc2c(cc1Cl)nc(N1CCNCC1)c1nnnn12` [Example 202, 7-chloro-8-fluoro-4-(piperazin-1-yl)tetrazolo[1,5-a]quinoxaline], the EC50 was less than 10 µM.

As for `CN1CCN(c2nc3cc(Cl)c(F)cc3n3nnnc23)CC1` [Example 203, 7-chloro-8-fluoro-4-(4-methylpiperazin-1-yl)tetrazolo[1,5-a]quinoxaline], the EC50 is less than 10 µM.

In the case of `CN1CCN(c2nc3ccc(Br)cc3n3nnnc23)CC1` [Example 204, 8-bromo-4-(4-methylpiperazin-1-yl)tetrazolo[1,5-a]quinoxaline], the EC50 is less than 10 µM.

`Brc1ccc2nc(N3CCNCC3)c3nnnn3c2c1` [Example 205, 8-bromo-4-(piperazin-1-yOtetrazolo[1,5-a]quinoxaline]: the EC50 is less than 10 µM.

Regarding `Fc1cc(C(F)(F)F)cc2c1nc(N1CCNCC1)c1nnnn12` [Example 206, 6-fluoro-4-(piperazin-1-yl)-8-(trifluoromethyl)tetrazolo[1,5-a]quinoxaline hydrochloride], the EC50 is less than 10 µM.

`CN1CCN(c2nc3c(F)cc(C(F)(F)F)cc3n3nnnc23)CC1` [Example 207, 6-fluoro-4-(4-methylpiperazin-1-yl)-8-(trifluoromethyl)tetrazolo[1,5-a]quinoxaline hydrochloride]: the EC50 is less than 10 µM.

Take `CN1CCN(c2nc3c(F)cc(Br)cc3n3cnnc23)CC1` [Example 208, 8-bromo-6-fluoro-4-(4-methylpiperazin-1-yl)-[1,2,4]triazolo[4,3-a]quinoxaline]: the EC50 is less than 10 µM.

Regarding `Fc1cc(Br)cc2c1nc(N1CCNCC1)c1nncn12` [Example 209, 8-bromo-6-fluoro-4-(piperazin-1-yl)-[1,2,4]triazolo[4,3-a]quinoxaline], the EC50 is less than 10 µM.

On to `CN1CCN(c2nc3c(F)cc(Br)cc3n3nnnc23)CC1` [Example 210, 8-bromo-6-fluoro-4-(4-methylpiperazin-1-yl)tetrazolo[1,5-a]quinoxaline], for which the EC50 was less than 10 µM.

In the case of `Fc1cc2nc(N3CCNCC3)c3nnnn3c2cc1Br` [Example 211, 8-bromo-7-fluoro-4-(piperazin-1-yl)tetrazolo[1,5-a]quinoxaline], the EC50 is less than 10 µM.

For `CN1CCN(c2nc3cc(F)c(Br)cc3n3nnnc23)CC1` [Example 212, 8-bromo-7-fluoro-4-(4-methylpiperazin-1-yl)tetrazolo[1,5-a]quinoxaline], the EC50 is less than 10 µM.

Turning to `Clc1ccc2nc(N3CCN4CCCC4C3)c3nnnn3c2c1` (stereo not shown) [Example 213, 8-chloro-4-(hexahydropyrrolo[1,2-a]pyrazin-2(1H)-yl)tetrazolo[1,5-a]quinoxaline], the EC50 is less than 10 µM.

Regarding `FC(F)(F)c1ccc2c(c1)nc(N1CCNCC1)c1nocc12` [Example 221, 4-(piperazin-1-yl)-7-(trifluoromethyl)isoxazolo[3,4-c]quinoline], the EC50 is greater than 10 µM.

Regarding `CN1CCN(c2nc3cc(Cl)ccc3c3conc23)CC1` [Example 224, 7-chloro-4-(4-methylpiperazin-1-yl)isoxazolo[3,4-c]quinoline], the EC50 is less than 10 µM.

As for `Clc1ccc2c(c1)nc(N1CCNCC1)c1nocc12` [Example 225, 7-chloro-4-(piperazin-1-yl)isoxazolo[3,4-c]quinoline], the EC50 was less than 10 µM.

Consider `CN1CCN(c2nc3cc(F)c(F)cc3c3conc23)CC1` [Example 226, 7,8-difluoro-4-(4-methylpiperazin-1-yl)isoxazolo[3,4-c]quinoline], for which the EC50 is less than 10 µM.

For the compound `Fc1cc2nc(N3CCNCC3)c3nocc3c2cc1F` [Example 227, 7,8-difluoro-4-(piperazin-1-yl)isoxazolo[3,4-c]quinoline], the EC50 is less than 10 µM.

As to `CN1CCN(c2nc3cc(Br)ccc3c3conc23)CC1` [Example 228, 7-bromo-4-(4-methylpiperazin-1-yl)isoxazolo[3,4-c]quinoline], the 50% effective concentration (EC50) was less than 10 µM.

Regarding `Brc1ccc2c(c1)nc(N1CCNCC1)c1nocc12` [Example 229, 7-bromo-4-(piperazin-1-yl)isoxazolo[3,4-c]quinoline], the EC50 is greater than 10 µM.

As to `Clc1ccc2nc(N3CCN4CCCC4C3)c3nocc3c2c1` (stereo not shown) [Example 230, 8-chloro-4-(hexahydropyrrolo[1,2-a]pyrazin-2(1H)-yl)isoxazolo[3,4-c]quinoline], the EC50 is less than 10 µM.

On to `FC(F)(F)c1ccc2nc(N3CCNCC3)c3[nH]ncc3c2c1` [Example 231, 4-(piperazin-1-yl)-8-(trifluoromethyl)-3H-pyrazolo[3,4-c]quinoline], for which the EC50 was less than 10 µM.

Take `CN1CCN(c2nc3ccc(Br)cc3c3c[nH]nc23)CC1` [Example 232, 8-bromo-4-(4-methylpiperazin-1-yl)-2H-pyrazolo[3,4-c]quinoline]: the concentration for a half-maximal effect (EC50) was less than 10 µM.

As for `Brc1ccc2nc(N3CCNCC3)c3n[nH]cc3c2c1` [Example 233, 8-bromo-4-(piperazin-1-yl)-2H-pyrazolo[3,4-c]quinoline], the EC50 is less than 10 µM.

As for `CN1CCN(c2nc3ccc(Br)cc3c3cn(C)nc23)CC1` [Example 234, 8-bromo-2-methyl-4-(4-methylpiperazin-1-yl)-2H-pyrazolo[3,4-c]quinoline], the EC50 was less than 10 µM.

As for `Cn1cc2c(n1)c(N1CCNCC1)nc1ccc(Br)cc12` [Example 235, 8-bromo-2-methyl-4-(piperazin-1-yl)-2H-pyrazolo[3,4-c]quinoline], the EC50 was less than 10 µM.

Regarding `Cc1nc2c(N3CCN(C)CC3)nc3cc(F)c(Br)cc3n2n1` [Example 237, 8-bromo-7-fluoro-2-methyl-4-(4-methylpiperazin-1-yl)-[1,2,4]triazolo[1,5-a]quinoxaline], the EC50 is less than 10 µM.

Take `Cc1nc2c(N3CCNCC3)nc3cc(F)c(Br)cc3n2n1` [Example 238, 8-bromo-7-fluoro-2-methyl-4-(piperazin-1-yl)-[1,2,4]triazolo[1,5-a]quinoxaline]: the concentration giving a half-maximal response (EC50) was less than 10 µM.

As for `Cc1nc2c(N3CCN(C)CC3)nc3cc(F)c(C)cc3n2n1` [Example 239, 7-fluoro-2,8-dimethyl-4-(4-methylpiperazin-1-yl)-[1,2,4]triazolo[1,5-a]quinoxaline], the EC50 was less than 10 µM.

Take `Cc1nc2c(N3CCNCC3)nc3cc(F)c(C)cc3n2n1` [Example 240, 7-fluoro-2,8-dimethyl-4-(piperazin-1-yl)-[1,2,4]triazolo[1,5-a]quinoxaline]: the EC50 was less than 10 µM.

For `Cc1nc2c(N3CCN(C)CC3)nc3ccc(Br)cc3n2n1` [Example 241, 8-bromo-2-methyl-4-(4-methylpiperazin-1-yl)-[1,2,4]triazolo[1,5-a]quinoxaline], the EC50 is less than 10 µM.

`Cc1nc2c(N3CCNCC3)nc3ccc(Br)cc3n2n1` [Example 242, 8-bromo-2-methyl-4-(piperazin-1-yl)-[1,2,4]triazolo[1,5-a]quinoxaline]: the EC50 was less than 10 µM.

`CN1CCN(c2nc3ccc(Cl)cc3n3ncnc23)CC1` [Example 243, 8-chloro-4-(4-methylpiperazin-1-yl)-[1,2,4]triazolo[1,5-a]quinoxaline]: the EC50 is less than 10 µM.

Take `CCOC(=O)c1nc2c(N3CCN(C)CC3)nc3ccc(Cl)cc3n2n1` [Example 244, Ethyl 8-chloro-4-(4-methylpiperazin-1-yl)-[1,2,4]triazolo[1,5-a]quinoxaline-2-carboxylate]: the EC50 was greater than 10 µM.

As for `Cc1nc2c3cc(Cl)cc(F)c3nc(N3CCN(C)CC3)n2n1` [Example 246, 9-chloro-7-fluoro-2-methyl-5-(4-methylpiperazin-1-yl)-[1,2,4]triazolo[1,5-c]quinazoline], the EC50 is less than 10 µM.

As to `Cc1nc2c3cc(Cl)cc(F)c3nc(N3CCNCC3)n2n1` [Example 247, 9-chloro-7-fluoro-2-methyl-5-(piperazin-1-yl)-[1,2,4]triazolo[1,5-c]quinazoline], the EC50 is less than 10 µM.

In the case of `Cc1nc2c3cc(Br)cc(F)c3nc(N3CCN(C)CC3)n2n1` [Example 248, 9-bromo-7-fluoro-2-methyl-5-(4-methylpiperazin-1-yl)-[1,2,4]triazolo[1,5-c]quinazoline], the EC50 was less than 10 µM.
